What follows are compounds tested against T1, met (HGF receptor) in human gastric cancer cells MKN45 (Homo sapiens, UniProt P08581) (assay: Inhibitory activity against met-autophosphorylation using ELISA method (2), MKN45 cells, HGF-independent).
T1 construct: endogenous in cells; host or cells: MKN45 human gastric cancer cells
Assay type: cell-based
Experimental: Cells were cultured with RPMI medium containing 0.1% fetal calf serum in 96-well flat-bottom plate in an amount of 3×10^4 per well, and were incubated at 37° C. overnight. The medium was then replaced by a fresh RPMI medium containing 0.1% fetal calf serum. A solution of the test compound in dimethyl sulfoxide was added to each well, and the incuvation was continued at 37° C. for additional one hr. The medium was removed, the cells were washed with phosphate buffered saline (pH 7.4), and 50 μl of a lysis buffer (20 mM HEPES (pH 7.4), 150 mM NaCl, 0.2% Triton X-100, 10% glycerol, 5 mM sodium orthovanadylate, 5 mM disodium ethylenediaminetetraacetate, and 2 mM Na4P2O7) was then added thereto. The mixture was shaken at 4° C. for 2 hr to prepare a cell extract.
Separately, phosphate buffered saline (50 μl, pH 7.4) containing 5 μg/ml of anti-phospho-tyrosine antibody (PY20; purchased from Transduction Laboratories) was added to a microplate for ELISA (Maxisorp; purchased from NUNC), followed by gentle agitation at 4° C. overnight to coat the surface of the wells with the antibody. After washing of the plate, 300 μl of a blocking solution was added, followed by gentle agitation at room temperature for 2 hr to perform blocking. After washing, the whole quantity of the cell extract was transferred to the wells, and the plate was then allowed to stand at 4° C. overnight. After washing, an anti-HGF receptor antibody (h-Met (C-12), purchased from Santa Cruz Biotechnology) was allowed to react at room temperature for one hr, and, after washing, a peroxidase-labeled anti-rabbit Ig antibody (purchased from Amersham) was allowed to react at room temperature for one hr. After washing, a chromophoric substrate for peroxidase (purchased from Sumitomo Bakelite Co., Ltd.) was added thereto to initiate a reaction. After a suitable level of color development, a reaction termination solution was added to stop the reaction, and the absorbance at 450 nm was measured with a microplate reader.

T1 sequence (P08581 25-1390): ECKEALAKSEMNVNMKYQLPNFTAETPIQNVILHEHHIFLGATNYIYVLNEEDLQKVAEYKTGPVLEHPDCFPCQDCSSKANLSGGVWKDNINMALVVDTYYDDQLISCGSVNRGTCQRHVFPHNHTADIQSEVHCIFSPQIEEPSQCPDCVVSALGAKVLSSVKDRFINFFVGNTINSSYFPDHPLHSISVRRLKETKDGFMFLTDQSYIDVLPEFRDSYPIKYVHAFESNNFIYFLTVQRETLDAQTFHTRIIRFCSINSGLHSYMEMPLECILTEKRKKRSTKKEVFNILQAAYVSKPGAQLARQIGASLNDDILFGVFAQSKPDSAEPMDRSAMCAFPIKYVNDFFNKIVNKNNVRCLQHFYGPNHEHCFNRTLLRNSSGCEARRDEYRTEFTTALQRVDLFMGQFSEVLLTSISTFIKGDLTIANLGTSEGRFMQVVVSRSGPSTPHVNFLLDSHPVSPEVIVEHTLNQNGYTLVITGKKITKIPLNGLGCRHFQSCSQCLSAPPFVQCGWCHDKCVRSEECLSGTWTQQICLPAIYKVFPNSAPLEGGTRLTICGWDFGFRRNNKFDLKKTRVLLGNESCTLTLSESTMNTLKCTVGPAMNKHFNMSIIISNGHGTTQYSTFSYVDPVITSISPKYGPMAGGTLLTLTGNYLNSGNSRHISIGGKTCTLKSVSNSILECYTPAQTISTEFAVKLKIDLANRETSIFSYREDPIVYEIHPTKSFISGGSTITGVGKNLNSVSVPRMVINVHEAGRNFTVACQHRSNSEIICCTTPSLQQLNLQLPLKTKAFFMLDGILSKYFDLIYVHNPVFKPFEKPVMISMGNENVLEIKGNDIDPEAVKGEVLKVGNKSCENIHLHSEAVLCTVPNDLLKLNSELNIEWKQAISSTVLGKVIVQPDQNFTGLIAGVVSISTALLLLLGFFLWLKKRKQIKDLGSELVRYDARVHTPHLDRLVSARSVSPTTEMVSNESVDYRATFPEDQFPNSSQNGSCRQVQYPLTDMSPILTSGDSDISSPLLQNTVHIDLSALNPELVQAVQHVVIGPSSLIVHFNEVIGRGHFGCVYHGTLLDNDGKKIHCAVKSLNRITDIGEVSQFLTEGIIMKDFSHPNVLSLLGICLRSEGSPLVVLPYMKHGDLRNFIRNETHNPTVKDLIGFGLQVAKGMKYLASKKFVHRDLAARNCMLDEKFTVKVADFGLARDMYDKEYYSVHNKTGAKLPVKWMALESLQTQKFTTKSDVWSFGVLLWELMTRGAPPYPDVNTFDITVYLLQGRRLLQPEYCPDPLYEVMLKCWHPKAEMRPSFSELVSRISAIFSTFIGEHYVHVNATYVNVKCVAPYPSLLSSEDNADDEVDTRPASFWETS

| IC50 [nM] | SMILES |
| --- | --- |
| 57.4 | COc1cc2c(Oc3ccc(NC(=S)NC(=O)Cc4ccccc4)cc3F)ccnc2cc1OCCCn1ccnc1 [Example 307, 1-{3-Fluoro-4-[7-(3-imidazol-1-yl-propoxy)-6-methoxy-quinolin-4-yloxy]-phenyl}-3-phenylacetyl-thiourea] |
| 526 | COc1cc2nccc(Oc3ccc(NC(=O)NC(=O)Nc4ccc(Cl)cc4)cc3)c2cc1OC [Example 249, N-(4-chlorophenyl)-({[4-(6,7-dimethoxy-quinolin-4-yloxy)anilino]carbonyl}amino)methanamide] |
| 294 | COc1cc2nccc(Oc3ccc(NC(=S)NC(=O)Cc4ccc(F)c(F)c4)c(F)c3)c2cc1OC [Example 198, 1-[2-(3,4-difluorophenyl)acetyl]-3-[4-(6,7-dimethoxyquinolin-4-yloxy)-2-fluorophenyl]thiourea] |
| 982 | COc1cc2nccc(Oc3ccc(NC(=S)NC(=O)Cc4ccccc4[N+](=O)[O-])cc3)c2cc1OC [Example 155, 1-[4-(6,7-dimethoxyquinolin-4-yloxy)phenyl]-3-[2-(2-nitrophenyl)acetyl]thiourea] |
| 27.9 | COc1cc2nccc(Oc3ccc(NC(=S)NC(=O)Cc4ccc(F)cc4)c(F)c3)c2cc1OC [Example 72, 1-[4-(6,7-dimethoxyquinolin-4-yloxy)-2-fluoro-phenyl]-3-[2-(4-fluorophenyl)acetyl]thiourea] |
| 113 | COc1cc2nccc(Oc3ccc(NC(=S)NC(=O)CC4CCCCC4)cc3)c2cc1OC [Example 61, 1-(2-cyclohexylacetyl)-3-[4-(6,7-dimethoxy-quinolin-4-yloxy)phenyl]thiourea] |
| 24.4 | COc1cc2nccc(Oc3ccc(NC(=S)NC(=O)Cc4ccccc4)cc3Cl)c2cc1OC [Example 63, 1-[3-chloro-4-(6,7-dimethoxyquinolin-4-yloxy)-phenyl]-3-phenylacetylthiourea] |
| 798 | COc1cc2c(Oc3ccc(NC(=S)NC(=O)Cc4ccc(Cl)cc4)cc3F)ccnc2cc1OCC(O)CN1CCCCC1 (centres unmarked) [Example 327, 1-[2-(4-Chloro-phenyl)-acetyl]-3-{3-fluoro-4-[7-(2-hydroxy-3-piperidin-1-yl-propoxy)-6-methoxy-quinolin-4-yloxy]-phenyl}-thiourea] |
| 2910 | COc1cc2nccc(Oc3ccc(NC(=O)NC(=O)Nc4ccccc4Cc4ccccc4)cc3)c2cc1OC [Example 246, N-(2-benzylphenyl)-({[4-(6,7-dimethoxy-quinolin-4-yloxy)anilino]carbonyl}amino)methanamide] |
| 268 | COc1cc2nccc(Oc3ccc(NC(=O)NC(=O)Cc4cc(F)ccc4F)c(F)c3)c2cc1OC [Example 132] |
| 18.5 | COc1cc2c(Oc3ccc(NC(=O)NC(=O)Cc4ccccc4)c(F)c3)ccnc2cc1OCCCN1CCC(CO)CC1 [Example 311, 1-(2-Fluoro-4-{7-[3-(4-hydroxymethyl-piperidin-1-yl)-propoxy]-6-methoxy-quinolin-4-yloxy}-phenyl)-3-phenyl-acetyl-urea] |
| 465 | COc1cc2nccc(Oc3ccc(NC(=S)NC(=O)[C@H](C)c4ccccc4)cc3)c2cc1OC [Example 158, 1-[4-(6,7-dimethoxyquinolin-4-yloxy)phenyl]-3-(2-phenylpropionyl)thiourea] |
| 132 | COc1cc2nccc(Oc3ccc(NC(=S)NC(=O)c4cccc5ccccc45)c(F)c3)c2cc1OC [Example 57, 1-[4-(6,7-dimethoxyquinolin-4-yloxy)-2-fluoro-phenyl]-3-(naphthalene-1-carbonyl)thiourea] |
| 281 | COc1cc2nccc(Oc3ccc(NC(=O)NC(=O)Nc4cccc(C)c4)cc3)c2cc1OC [Example 256, N-(3-methylphenyl)-({[4-(6,7-dimethoxy-quinolin-4-yloxy)anilino]carbonyl}amino)methanamide] |
| 20.4 | COc1cc2c(Oc3ccc(NC(=S)NC(=O)Cc4cccc(F)c4)cc3F)ccnc2cc1OCCN1CCOCC1 [Example 279, 1-{3-Fluoro-4-[6-methoxy-7-(2-morpholin-4-yl-ethoxy)-quinolin-4-yloxy]-phenyl}-3-[2-(3-fluoro-phenyl)-acetyl]-thiourea] |
| 258 | COc1cc2nccc(Oc3ccc(NC(=S)NC(=O)Cc4c(Cl)cccc4Cl)c(F)c3)c2cc1OC [Example 208, 1-[2-(2,6-dichlorophenyl)acetyl]-3-[4-(6,7-dimethoxyquinolin-4-yloxy)-2-fluorophenyl]thiourea] |

| IC50 [nM] | SMILES |
| --- | --- |
| 92 | CCOCCC(=O)NC(=S)Nc1ccc(Oc2ccnc3cc(OC)c(OC)cc23)cc1 [Example 62, 1-[4-(6,7-dimethoxyquinolin-4-yloxy)phenyl]-3-(3-ethoxypropionyl)thiourea] |
| 188 | COc1cc2c(Oc3ccc(NC(=S)NC(=O)Cc4ccccc4Cl)cc3F)ccnc2cc1OCC(O)CN1CCCCC1 (centres unmarked) [Example 316, 1-[2-(2-Chloro-phenyl)-acetyl]-3-{3-fluoro-4-[7-(2-hydroxy-3-piperidin-1-yl-propoxy)-6-methoxy-quinolin-4-yloxy]-phenyl}-thiourea] |
| 182 | COc1cc2nccc(Oc3ccc(NC(=S)NC(=O)Cc4cccc(F)c4)c(F)c3)c2cc1OC [Example 74, 1-[4-(6,7-dimethoxyquinolin-4-yloxy)-2-fluoro-phenyl]-3-[2-(3-fluorophenyl)acetyl]thiourea] |
| 736 | COc1cc2nccc(Oc3ccc(NC(=O)CC(=O)Nc4ccc(Cl)cc4)cc3)c2cc1OC [Example 219, N-(4-chlorophenyl)-N′-[4-(6,7-dimethoxy-quinolin-4-yloxy)phenyl]malonamide] |
| 268 | COc1cccc(CC(=O)NC(=S)Nc2ccc(Oc3ccnc4cc(OC)c(OC)cc34)cc2)c1 [Example 184, 1-[4-(6,7-dimethoxyquinolin-4-yloxy)phenyl]-3-[2-(3-methoxyphenyl)acetyl]thiourea] |
| 23 | COc1cc2c(Oc3ccc(NC(=O)NC(=O)Cc4ccccc4F)cc3F)ccnc2cc1OCCCN1CCCC1 [Example 294, 1-{3-Fluoro-4-[6-methoxy-7-(3-pyrrolidin-1-yl-propoxy)-quinolin-4-yloxy]-phenyl}-3-[2-(2-fluoro-phenyl)-acetyl]-urea] |
| 268 | COc1cc2nccc(Oc3ccc(NC(=O)CC(=O)Nc4ccc(F)cc4F)c(C)c3)c2cc1OC [Example 223, N-(2,4-difluorophenyl)-N′-[4-(6,7-dimethoxy-quinolin-4-yloxy)-2-methylphenyl]malonamide] |
| 46.3 | COc1cc2nccc(Oc3ccc(NC(=O)NC(=O)Cc4ccc(F)cc4F)cc3F)c2cc1OC [Example 34, 1-[2-(2,4-difluorophenyl)acetyl]-3-[4-(6,7-dimethoxyquinolin-4-yloxy)-3-fluorophenyl]urea] |
| 291 | COc1cc2c(Oc3ccc(NC(=O)NC(=O)Cc4ccccc4)cc3F)ccnc2cc1OCCCCl [Example 14, 1-{4-[7-(3-chloro-propoxy)-6-methoxyquinolin-4-yloxy]-3-fluorophenyl}-3-phenylacetylurea] |
| 66.3 | COc1cc2nccc(Oc3ccc(NC(=S)NC(=O)Cc4ccccc4)c(Cl)c3)c2cc1OC [Example 65, 1-[2-chloro-4-(6,7-dimethoxyquinolin-4-yloxy)-phenyl]-3-phenylacetylthiourea] |
| 444 | COc1cc2nccc(Oc3ccc(NC(=S)NC(=O)Cc4c(F)ccc(F)c4F)cc3F)c2cc1OC [Example 206, 1-[4-(6,7-dimethoxyquinolin-4-yloxy)-3-fluorophenyl]-3-[2-(2,3,6-trifluorophenyl)acetyl]-thiourea] |
| 4020 | COc1cc2nccc(Oc3ccc(NC(=O)NC(=O)Nc4ccc5c(c4)OCCO5)cc3)c2cc1OC [Example 238, N-(2,3-dihydro-1,4-benzodioxin-6-yl)-({[4-(6,7-dimethoxyquinolin-4-yloxy)anilino]carbonyl}amino)-methanamide] |
| 345 | COc1cc2nccc(Oc3ccc(NC(=O)NC(=O)c4ccccc4Cl)c(F)c3)c2cc1OC [Example 107, 1-(2-chloro-benzoyl)-3-[4-(6,7-dimethoxy-quinolin-4-yloxy)-2-fluorophenyl]urea] |
| 41.3 | COc1cc2nccc(Oc3ccc(NC(=S)NC(=O)Cc4c(F)cccc4F)cc3F)c2cc1OC [Example 95, 1-[2-(2,6-difluorophenyl)acetyl]-3-[4-(6,7-dimethoxyquinolin-4-yloxy)-3-fluorophenyl]thiourea] |
| 321 | COc1cc2nccc(Oc3ccc(NC(=S)NC(=O)Cc4c(F)ccc(F)c4F)cc3)c2cc1OC [Example 204, 1-[4-(6,7-dimethoxyquinolin-4-yloxy)phenyl]-3-[2-(2,3,6-trifluorophenyl)acetyl]thiourea] |

| SMILES | IC50 [nM] |
| --- | --- |
| COc1cc2c(Oc3ccc(NC(=O)NC(=O)Cc4ccc(F)cc4)c(F)c3)ccnc2cc1OCCCCN1CCCCC1 [Example 45, 1-{2-fluoro-4-[6-methoxy-7-(4-piperidine-1-yl-butoxy)quinolin-4-yloxy]phenyl}-3-[2-(4-fluorophenyl)-acetyl]urea] | 207 |

— patent US8324245B2, “Quinoline derivative and quinazoline derivative inhibiting self-phosphorylation of hepatocytus proliferator receptor, and medicinal composition containing the same” (Kyowa Hakko Kirin Co., Ltd., priority 2001, dated 2012)
